Assay results reported in patent US8802692B2, “Synergistic effects between sphingosine-1-phosphate receptor antagonists and antimicrotubule agents” (Exelixis, Inc., priority 2008, dated 2014).

Columns and labels:
Type in all cases: in vivo, Nude mice
[1] = system: human MDA-MB-231 cells breast cancer cells (ATCC #HTB-26); assay: MDA-MB-231 breast cancer xenograft, S1P1R antagonist + paclitaxel; conditions: paclitaxel alone 7.5 mg/kg q3d ip; start 100 mgs
Procedure: In this experiment, 4 different doses of an S1P1R receptor antagonist, 0.3 mgs/kg, 3 mgs/kg, 10 mgs/kg or 30 mgs/kg was used with an optimal dose of paclitaxel (MP Biomedicals cat #193532). Nude mice (athymic female mice, Taconic Farms, Inc., 10 animals per group) were inoculated subcutaneously with human MDA-MB-231 cells breast cancer cells (ATCC #HTB-26) (1×10^6 cells per animal). After tumors were allowed to grow for 21 days, one group of animals was treated with paclitaxel at a dose of 7.5 mg/kg q3d ip. Four groups of animals were treated with a specific concentration of S1P1R receptor antagonist and the same concentration of paclitaxel using the same schedule used for the individual paclitaxel group. Finally, a control group was treated with the vehicles used for each agent individually. Tumor dimensions were measured by calipers and then converted to weight using the formula: tumor weight (mg)=[tumor volume=length (mm)×[…]]/2. Animals were also monitored for weight loss as an indicator of signs of toxicity. The S1P1R Receptor antagonist was formulated in a compostion containing 10% NMP (n-methyl pyrrolidone)+90% corn oil. […]
Cells were inoculated subcutaneously on day 0 and allowed to grow for 21 days. […] Dosing continued for 19 days and tumors in each of the four groups were measured and averaged. […]

[2] = system: human non-small cell lung carcinoma cells (ATCC #HTB-56); assay: Non-small cell lung carcinoma xenograft (Calu-6 XN model), S1P1R antagonist + paclitaxel; conditions: paclitaxel alone 15 mg/kg q3d ip; dosing day 9 to day 31; control about 1500 mgs
Procedure: In this experiment, a maximum efficacy dose of an S1P1R receptor antagonist was used with an optimal dose of paclitaxel (MP Biomedicals cat #193532). Nude mice (athymic female mice, Taconic Farms, Inc., 10 animals per group) were inoculated subcutaneously with human non-small cell lung carcinoma cells (ATCC #HTB-56) (1×10^6 cells per animal). After tumors were allowed to grow for 9 days, one group of animals was treated with a S1P1R receptor antagonist (100 mg/kg qd po). A second group of animals was treated with paclitaxel at a dose of 15 mg/kg q3d ip. A third group of animals was treated with a S1P1R receptor antagonist and paclitaxel using the same dose and schedule used for the individual agents. A fourth control group was treated with the vehicles used for each agent individually. Tumor dimensions were measured by calipers and then converted to weight using the formula: tumor weight (mg)=[tumor volume=length (mm)×[…]]/2. Animals were also monitored for weight loss as an indicator of signs of toxicity. […]
Cells were inoculated subcutaneously on day 0 and allowed to grow for 9 days. […] Dosing continued until day 31 and tumors from some animals in each of the four groups were measured and averaged. Some animals in the paclitaxel group and the combined treatment group were monitored after treatment stopped for a period of time. […]

[3] = system: human MDA-MB-231 breast cancer cells (ATCC#HTB-26); assay: MDA-MB-231 breast cancer xenograft, S1P1R antagonist + docetaxel; conditions: docetaxel alone 7 mg/kg q3d ip; start 96 mgs
Procedure: In this experiment, a maximum efficacy dose of an S1P1R receptor antagonist was used with an optimal dose of docetaxol (Haorui Pharma Chem, Inc; CAS#114977-28-5). Compound #2, 50, 52, or 75 were used in these experiments. Nude mice (athymic female mice, Taconic Farms, Inc., 10 animals per group) were inoculated subcutaneously with human MDA-MB-231 breast cancer cells (ATCC#HTB-26) (1×10^6 cells per animal). After tumors were allowed to grow for 17 days, one group of animals was treated with docetaxel at a dose of 7 mg/kg q3d ip. One group of animals was treated with a specific dose of S1P1R receptor antagonist and the same dose of docetaxel using the same schedule used for the individual docetaxel group. Finally, a control group was treated with the vehicles used for each agent individually. Tumor dimensions were measured by calipers and then converted to weight using the formula: tumor weight (mg)=[tumor volume=length (mm)×width^2(mm^2)]/2. Animals were also monitored for weight loss as an indicator of signs of toxicity. The S1P1R receptor antagonist was formulated in a composition containing 10% NMP (n-methyl pyrrolidone)+90% corn oil. […]
Cells were inoculated subcutaneously on day 0 and allowed to grow for 17 days. […] Dosing continued for 7 cycles (q3d) and tumors in each of the three groups were measured and averaged. […]

[4] = system: human MDA-MB-231 breast cancer cells (ATCC# HTB-26); assay: MDA-MB-231 breast cancer xenograft, S1P1R antagonist + vincristine; conditions: start 95 mgs
Procedure: In this experiment, a maximum efficacy dose of an S1P1R receptor antagonist was used with doses of vincristine (Yes Pharma, Ltd., CAS#2068-78-2, Lot#80702). Compound #2, 50, 52, or 75 were used in these experiments. Nude mice (athymic female mice, Taconic Farms, Inc., 10 animals per group) were inoculated subcutaneously with human MDA-MB-231 breast cancer cells (ATCC# HTB-26) (1×10^6 cells per animal). After tumors were allowed to grow for 19 days, two groups of animals were treated with vincristine at doses of 0.1 or 1 mg/kg q3d iv. One group of animals was treated with a specific concentration of S1P1R receptor antagonist. Two groups of animals were treated with a specific dose of S1P1R receptor antagonist and the same dose of vincristine using the same schedule used for the individual vincristine groups. Finally, a control group was treated with the vehicles used for each agent individually. Tumor dimensions were measured by calipers and then converted to weight using the formula: tumor weight (mg)=[tumor volume=length (mm)×width^2(mm^2)]/2. Animals were also monitored for weight loss as an indicator of signs of toxicity. […]
Cells were inoculated subcutaneously on day 0 and allowed to grow for 19 days. […] Dosing continued for 8 cycles (q3d) and tumors in each of the six groups were measured and averaged. […]

CC(=O)O[C@H]1C(=O)[C@@]2(C)[C@H]([C@H](OC(=O)c3ccccc3)[C@]3(O)C[C@H](OC(=O)[C@H](O)[C@@H](NC(=O)c4ccccc4)c4ccccc4)C(C)=C1C3(C)C)[C@]1(OC(C)=O)CO[C@@H]1C[C@@H]2O [paclitaxel]
average tumor weight after 19 days of treatment [1]: about 325 mgs
average tumor weight after treatment [2]: about 550 mgs

CC(=O)O[C@@]12CO[C@@H]1C[C@H](O)[C@@]1(C)C(=O)[C@H](O)C3=C(C)[C@@H](OC(=O)[C@H](O)[C@@H](NC(=O)OC(C)(C)C)c4ccccc4)C[C@@](O)([C@@H](OC(=O)c4ccccc4)[C@H]21)C3(C)C [docetaxel]
average tumor weight after 7 cycles of treatment [3]: about 310 mgs

CC[C@]1(O)C[C@H]2CN(CCc3c([nH]c4ccccc34)[C@@](C(=O)OC)(c3cc4c(cc3OC)N(C=O)[C@H]3[C@@](O)(C(=O)OC)[C@H](OC(C)=O)[C@]5(CC)C=CCN6CC[C@]43[C@@H]65)C2)C1 [vincristine]
average tumor weight after 8 cycles of treatment ([4]; vincristine alone 0.1 mg/kg q3d iv): 659 mg
average tumor weight after 8 cycles of treatment ([4]; vincristine alone 1 mg/kg q3d iv): 26 mg
